Results on 1 compound are retold here after article PMC11365428 (The Journal of Biological Chemistry, 2024).

Assay type in all cases: cell-based
Experiment [1] deals with apTKRPR-A T376 (Aplysia californica, UniProt A0AAU7SSZ1, DEL377-398). As to the kind of experiment: IP1 accumulation assay, C-terminal truncate apTKRPR-A T376. The method, then: (§1) To express putative Aplysia receptors transiently in CHO-K1 cells, the cDNAs were subcloned into the pcDNA3.1(+) or pcDNA3.1(+)-FLAG (for ELISA experiments only, see “Cell surface expression analysis by ELISA” section) expression vector. On the day before transfection, the CHO-K1 cells were passaged into 60 mm diameter tissue culture–treated dishes, and the transfection experiments were performed when the cells were grown to 70 to 90% confluence. CHO-K1 cells were transfected with the cDNA plasmid constructs using Turbofect Transfection reagent (Thermo Fisher Scientific, R0531), following the manufacturer’s instructions. In brief, 4 μg of the putative receptor plasmids [in pcDNA3.1(+) or pcDNA3.1(+)-FLAG] were mixed with 400 μl of Opti-MEM (Gibco, 11058021), followed by the addition of 15 μl of TurboFect Transfection reagent and incubated at room temperature for 15 min. […]
(§2) The next day, transfected cells were trypsinized and reseeded in an opaque white 96-well half-area (Corning, 3688) or 384-well tissue culture–treated plates (Corning, 3570) at a density of 20,000 cells/well in F-12K and 10% FBS and incubated at 37 °C in a humidified incubator containing 5% CO2 overnight. On the third day, the activation of the putative receptors was detected by monitoring intracellular IP1 concentration using an IP-One Gq kit (Cisbio, 62IPAPEB) in Tecan Spark. […]

The target in experiment [2] is apTKRPR-B T391 (Aplysia californica, UniProt A0AAU7STS1, DEL392-447). As to the kind of experiment: IP1 accumulation assay, C-terminal truncate apTKRPR-B T391. The method, then: as §1, §2
In experiment [3] the target is apTKRPR-A 5A (Aplysia californica, UniProt A0AAU7SSZ1, S377A/S394A/T379A/T387A/T393A). Put plainly: IP1 accumulation assay, Ser/Thr-to-Ala mutant apTKRPR-A 5A. The method, then:
as §1, §2

The target of experiment [4] is T1, apTKRPR-A (Aplysia californica, UniProt A0AAU7SSZ1).
T1 sequence (A0AAU7SSZ1 1-398): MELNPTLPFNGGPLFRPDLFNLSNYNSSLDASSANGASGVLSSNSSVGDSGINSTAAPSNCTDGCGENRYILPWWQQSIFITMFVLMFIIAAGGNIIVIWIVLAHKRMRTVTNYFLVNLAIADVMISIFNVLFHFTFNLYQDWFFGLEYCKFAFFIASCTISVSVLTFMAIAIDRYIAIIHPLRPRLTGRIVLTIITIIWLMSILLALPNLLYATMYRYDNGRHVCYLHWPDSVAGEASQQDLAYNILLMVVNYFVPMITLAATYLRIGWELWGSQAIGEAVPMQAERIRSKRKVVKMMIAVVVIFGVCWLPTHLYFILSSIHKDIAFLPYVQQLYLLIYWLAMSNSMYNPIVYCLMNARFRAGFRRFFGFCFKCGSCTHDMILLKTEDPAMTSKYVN
As to the kind of experiment: Receptor desensitization assay, protocol 2 (repeated agonist exposure), apTKRPR-A. Conditions: 10 μM pretreatment 2-60 min without LiCl, wash, second 10 μM application for 15 min with LiCl; % of control; n = 5. The method, then:
(§3) Therefore, we adopted two protocols to study the desensitization of apTKRPRs. The protocols were performed using a procedure modified from previous work ([87], [88], [89]).
(§4) Protocol 2 ([89]): To simulate repeated stimulation with an agonist, we examined agonist-induced desensitization by quantifying the accumulation level of IP1 after two applications of the agonist/ligand. Because the IP1 accumulation assay involves using LiCl to stop the degradation of IP1, in this protocol, LiCl was applied only during the second application of the agonist. Specifically, to elicit desensitization, cells were first exposed to 10 μM apTKRP-2b in the absence of LiCl for various pretreatment durations (pretreatment stage/phase Ⅰ). After this agonist exposure, cells were washed (three times) rapidly with PBS (phase Ⅱ), and the wash was consistently performed in each experiment. Responsiveness of the receptor was then assessed by measuring intracellular concentrations of IP1 accumulation in response to a second application of 10 μM apTKRP-2b for 15 min in the presence of LiCl (phase Ⅲ) (Fig. S11).

Experiment [5] deals with T2, apTKRPR-B (Aplysia californica, UniProt A0AAU7STS1).
T2 sequence (A0AAU7STS1 1-447): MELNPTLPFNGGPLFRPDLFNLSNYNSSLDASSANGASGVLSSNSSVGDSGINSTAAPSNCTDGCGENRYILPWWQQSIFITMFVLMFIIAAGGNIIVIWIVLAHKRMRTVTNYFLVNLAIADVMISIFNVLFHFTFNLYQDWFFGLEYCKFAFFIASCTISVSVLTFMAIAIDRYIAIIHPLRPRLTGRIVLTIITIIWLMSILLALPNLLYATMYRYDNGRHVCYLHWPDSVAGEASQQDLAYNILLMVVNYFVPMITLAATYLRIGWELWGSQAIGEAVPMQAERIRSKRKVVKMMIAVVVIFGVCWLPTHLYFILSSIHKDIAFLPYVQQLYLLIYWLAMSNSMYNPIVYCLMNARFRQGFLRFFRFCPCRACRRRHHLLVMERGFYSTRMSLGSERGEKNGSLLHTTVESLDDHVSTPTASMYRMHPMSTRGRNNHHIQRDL
As to the kind of experiment: Receptor desensitization assay, protocol 2 (repeated agonist exposure), apTKRPR-B. To be noted: 10 μM pretreatment 2-60 min without LiCl, wash, second 10 μM application for 15 min with LiCl; % of control; n = 5. The method, then: as §3, §4

SMILES strings stand for the structures. pEC50: −log10 of the molar value. Non-standard residues stand in square brackets, D forms with d. Residues, ends and D or L forms follow the SMILES beside them. pGlu = O=C1CC[C@@H](C(=O)O)N1

apTKRPR-A 5A, sequence (A0AAU7SSZ1 entry or part of it S377A/T379A/T387A/T393A/S394A): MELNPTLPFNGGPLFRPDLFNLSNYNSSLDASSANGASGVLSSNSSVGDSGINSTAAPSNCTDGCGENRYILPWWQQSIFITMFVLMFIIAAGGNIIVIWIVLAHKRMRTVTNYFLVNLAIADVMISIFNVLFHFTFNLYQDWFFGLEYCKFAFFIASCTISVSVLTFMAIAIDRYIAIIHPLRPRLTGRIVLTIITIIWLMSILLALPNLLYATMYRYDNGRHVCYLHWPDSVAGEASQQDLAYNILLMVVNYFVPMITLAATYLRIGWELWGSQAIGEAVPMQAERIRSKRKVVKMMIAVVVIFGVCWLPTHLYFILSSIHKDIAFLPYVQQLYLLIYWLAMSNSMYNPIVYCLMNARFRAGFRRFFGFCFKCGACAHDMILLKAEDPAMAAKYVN

As a reminder, the pEC50 is the negative decadic logarithm of the EC50, by convention in mol/L. High values mean a low EC50, low ones a high EC50. As for `CC(C)C[C@H](NC(=O)[C@H](Cc1c[nH]cn1)NC(=O)[C@@H]1CCCN1C(=O)[C@@H]1CCC(=O)N1)C(=O)NCC(=O)N[C@@H](Cc1ccccc1)C(=O)N[C@@H](Cc1c[nH]cn1)C(=O)NCC(=O)N[C@@H](CO)C(=O)N[C@@H](CCCNC(=N)N)C(N)=O` [apTKRP-2b] ([pGlu]PHLGFHGSR-NH2), the pEC50 is 7.74 in experiment [1], 7.67 in experiment [2] and 7.23 in experiment [3]. The “IP1 accumulation after pretreatment, apTKRPR-A (protocol 2)” value in experiment [4] is reported as “IP1 accumulation was less after the second exposure”. The “IP1 accumulation after pretreatment, apTKRPR-B (protocol 2)” value in experiment [5] was “IP1 accumulation was less after the second exposure”.
